Reference: patent publication US7232804B2, “Use of KPV tripeptide for dermatological disorders” (Zengen, Inc., priority 2001, dated 2007)
Where a SMILES comes first, the peptide text is derived from it.

How the values were obtained:
[1] = test system: psoriatic lesions; test: Topical treatment of psoriatic lesions in a subject, KPV in mineral oil vs contralateral Hydrocortisone; conditions: for Adverse reactions or side effects: treatment continued for eleven days
Source text: In a subject with a diagnosed and confirmed greater than ten year history of dermatologically symptomatic psoriasis, KPV was used to treat inflammation, scaling, dryness, pain, erythema, and pruritis. The subject had psoriatic lesions located bilaterally on the volar (palm side) surface of the forearms. The lesions varied in time of existence for greater than ten years with variagated presentation. The subject presented no opportunistic infection of the integument secondary to the psoriatic lesions.
KPV in a crystalline form was prepared as disclosed in U.S. Pat. No. 5,028,592. Mineral oil was chosen as a carrier for the KPV preparation. One milligram of KPV was administered topically on the affected areas of the integument at a frequency of twice daily. For comparison purposes, a standard dosage amount of Hydrocortisone was placed on the contralateral area of the body of the subject that also manifested the dermatological sequelae of psoriasis. Topical administration was accomplished with standard cotton tipped applicators.
This treatment was continued for eleven days.

[2] = test system: fever; conditions: relative to parent peptide or α-MSH(11-13); cited from earlier work
[3] = test system: inflammation; conditions: relative to L-form tripeptide α-MSH (11-13); cited from earlier work

CC(C)[C@H](NC(=O)[C@@H]1CCCN1C(=O)[C@@H](N)CCCCN)C(=O)O [KPV, lysine-proline-valine] (H-Lys-Pro-Val-OH)
Adverse reactions or side effects [1]: No adverse reactions or side effects

C[C@]12CCC(=O)C=C1CC[C@@H]1[C@@H]2[C@@H](O)C[C@@]2(C)[C@H]1CC[C@]2(O)C(=O)CO [Hydrocortisone]
Improvement of symptoms associated with the psoriatic lesions ([1]; KPV one milligram twice daily in mineral oil, Hydrocortisone standard dosage on contralateral side): showed improvement
Period of symptom control / relief from symptoms ([1]; psoriatic lesions on forearms): three hours
Adverse reactions or side effects [1]: telangictasia and atrophy of skin

8-13 sequence: α-MSH 8-13 fragment (RWGKPV; Designed polypeptide with anti-inflammatory, anti-bacterial, anti-fungal and antipyretic properties.)
Antipyretic potency [2]: greater than that of the 11-13 sequence

Ac-[D-K11]-α-MSH 11-13-NH2
Anti-inflammatory activity / general potency [3]: same general potency as the L-form

10-13 sequence: α-MSH(11-13) with glycine added to form the 10-13 sequence (GKPV; Designed polypeptide with anti-inflammatory, anti-bacterial, anti-fungal and antipyretic properties.)
Antipyretic potency [2]: slightly decreased potency

[Nle^4,D-Phe^7]-α-MSH
Antipyretic potency [2]: approximately ten times more potent than the parent peptide

9-13 sequence: α-MSH 9-13 fragment (WGPKV; Designed polypeptide with anti-inflammatory, anti-bacterial, anti-fungal and antipyretic properties.)
Antipyretic potency [2]: almost devoid of activity

α-MSH sequence (4-10): the "core" α-MSH sequence (4-10)
Antipyretic potency [2]: little antipyretic and anti-inflammatory activity
Anti-inflammatory activity / general potency [3]: little antipyretic and anti-inflammatory activity
